Test results taken from US4123534A, “Adenine derivatives and hypolipidemic composition thereof” (Wulfing; Johann W., priority 1976, dated 1978).
Like-named read-outs stand apart in the source and are kept apart here.

Key:
[1] = fall in serum triglyceride levels in male rats, 1 mg/kg per os; format: in vivo; conditions: 3-methylpyrazole-5-carboxylic acid addition salts
Method: When administered to male rats the 3-methylpyrazole-5-carboxylic acid addition salts of the compound of the formula (IV) wherein R2 is respectively a methyl, ethyl, isopropyl and n-butyl at a dose of 1 mg/kg per os produced a fall in serum triglyceride levels of about 23%, 34%, 34% and 56% respectively.

[2] = acute toxicity (LD50) in mice; format: in vivo; conditions: for LD50: mouse, in vivo, mice
[3] = oral test in normal rats starved for 17 hours: serum lipid lowering; format: in vivo; conditions: rats starved 17 hours
Method: Similarly, a reduction in serum free fatty acid concentration of about 40-50% was produced over the dose range 0.15 mg/kg to 5 mg/kg.

[4] = different animal species and man; cited from earlier work

CC(C)N(CCO)CC(O)Cn1cnc2c(N)ncnc21 (centres unmarked)
fall in serum triglyceride levels [1]: ~34%

CCCCN(CCO)CC(O)Cn1cnc2c(N)ncnc21 (centres unmarked)
fall in serum triglyceride levels [1]: ~56%

CCN(CCO)CC(O)Cn1cnc2c(N)ncnc21 (centres unmarked)
fall in serum triglyceride levels [1]: ~34%

CN(CCO)CC(O)Cn1cnc2c(N)ncnc21 (stereo not drawn) [Example 1 (9-isomer), 6-Amino-9-[2-hydroxy-3-(N-methyl-N-2-hydroxyethyl)aminopropyl]purine]
acute toxicity ([2]; in words): low acute toxicity
LD50 ([2]; iv, intra-venous, read-out: LD50 by intra-venous administration): ~350 mg/kg
LD50 ([2]; oral, read-out: LD50 by oral administration): ~1000 mg/kg

CN(CCO)CC(O)Cn1cnc2c(N)ncnc21 (centres unmarked) [Example 2, 6-Amino-9-[2-hydroxy-3-(N-methyl-N-2-hydroxyethyl)aminopropyl]purine3-methylpyrazole-5-carboxylate]
fall in serum triglyceride levels [1]: about 23%
reduction in serum triglyceride levels ([3]; 1 hour post administration, dose range 0.25 mg/kg to 25 mg/kg): 30-40%
reduction in serum cholesterol levels ([3]; dose of 100 mg/kg): about 30%
reduction in serum free fatty acid concentration ([3]; dose range 0.15 mg/kg to 5 mg/kg): 40-50%

Nc1ncnc2c1ncn2C[C@@H](O)[C@@H](O)C(=O)O [lentinacin]
lowering of lipid components of plasma lipoproteins (cholesterol, triglycerides and phospholipids) [4]: lowers all lipid components of the plasma - lipoproteins
